{"source": "patent US20030091998A1", "about": "“Association of beta2-adrenergic receptor haplotypes with drug response” (priority 2000, published 2003)", "test_system": "asthma patients", "assay": "In vivo FEV1 (bronchodilator) response to albuterol in asthma patients, by β2AR haplotype pair", "set-up": "species or system human", "method": "The patients in the asthma cohort were enrolled from an outpatient facility as described in detail elsewhere (Yan, L., Galinsky, R. E., Bernstein, J. A., Liggett, S. B. & Weinshilboum, R. M. (1999) Pharmacogenetics in Press). […] Forced expiratory volume in 1 second (FEV1) and forced vital capacity (FVC) were determined in triplicate. The predicted values for these measurements were calculated based on standard algorithms (Morris, J. F., Koski, A. & Johnson, L. C. (1971) Am Rev Respir Dis 103, 57-67).\nThe association between changes in % predicted FEV1 and haplotype pair was assessed by fitting an analysis of covariance model (ANCOVA) with terms for haplotype pair, sex and baseline severity. P-values from pairwise comparisons by haplotype pair were adjusted for multiple comparisons by applying the Holm-Sidak step-down procedure (Ludbrook, J. (1998) Clin and Exp Pharmacology & Physiology 25, 1032-1037.). […] In addition, the African-American asthma patients were excluded from the analysis due to the low number of individuals in this population group. For the analysis of individual SNPs, a similar ANCOVA model was employed with a discrete term for SNP genotype, and terms for sex and baseline severity. The Holm-Sidak step-down procedure was used to adjust the p-values from the individual SNP analyses for the number of tests performed.\nPairwise tests were made while correcting for multiple comparisons. […] For this analysis, a similar ANCOVA model as above was utilized. […] Since 0, 1 or 2 copies of these two haplotypes are present in our population as haplotype pairs 2/2, 2/4 and 4/4, a potential gene dose effect can be assessed by regression analysis.", "data": [{"compound": "CC(C)(C)NCC(O)c1ccc(O)c(CO)c1", "note": "(centres unmarked) [albuterol]", "values": [{"measurement": "change % FEV1 (change in % predicted FEV1)", "setting": "Caucasian asthma patients with β2AR haplotype pair 4/4, spirometry before and 30 min after inhalation of 180 μg albuterol by nebulization", "value": "8.53±1.78", "unit": "%"}, {"measurement": "bronchodilator response to albuterol", "setting": "asthmatic patients with β2AR haplotype pair 2/6", "value": "moderate bronchodilator response"}, {"measurement": "bronchodilator response to albuterol", "setting": "asthmatic patients with β2AR haplotype pairs 2/2 and 4/6", "value": "respond well"}, {"measurement": "bronchodilator response to albuterol", "setting": "asthmatic patients with β2AR haplotype pairs 2/4 and 4/4", "value": "little to no response"}, {"measurement": "greater response of haplotype pair 2/2 than haplotype pair 4/4", "setting": "in vivo FEV1 response, individuals with haplotype pair 2/2 vs 4/4 (FIG. 5)", "value": "~50", "unit": "%"}]}]}
